{"source": "patent US5861300A", "about": "“Antiviral transgenic plants, vectors, cells and methods” (The Cleveland Clinic Foundation, priority 1995, dated 1999)", "key": {"[1]": {"system": "murine 2-5A-dependent RNase (truncated recombinant clone ZB1 and naturally occurring L929 cell enzyme)", "experiment": "uv covalent crosslinking of 2-5A probe with unlabeled oligonucleotide competitors", "format": "binding", "settings": "for competition with 2-5A probe for binding to protein: competitor 100 nM, recombinant 74 kDa protein in wheat germ extract, similar profile with L929 cell enzyme; for concentration required to prevent 2-5A probe binding: both proteins (recombinant ZB1 and naturally occurring)", "method": "(§1) The synthesis of the 2-5A probe, p(A2'p)2 (br^8 A2'p)2 A[32P]Cp, and its crosslinking to 2-5A-dependent RNase is performed exactly as described. See Nolan-Sorden, N. L. et al., Anal. Biochem., 184:298-304 (1990). Briefly, the 2-5A probe, about 0.7 to 2.5 nM at […], is incubated for about one hour on ice with cell extract prepared as described, Silverman, R. H. and Krause, D., I.R.L. Press, Oxford, England, pp. 149-193 (1987), in the absence or presence of unlabeled oligonucleotide competitors. Covalent crosslinking is done under a uv lamp (308 nm) for one hour on ice and the proteins are separated on SDS/10% polyacrylamide gels. Filter assays for 2-5A binding activity using the 2-5A probe for about one hour on ice, as described in Knight, M. et al., Nature, 288:189-192 (1980)."}, "[2]": {"system": "human 2-5A-dependent RNase (recombinant and HeLa cell)", "experiment": "uv covalent crosslinking of 2-5A probe with unlabeled oligonucleotide competitors", "format": "binding", "settings": "competitor 100 nM; recombinant human enzyme in wheat germ extract; same pattern in HeLa cell extract", "method": "as §1"}, "[3]": {"system": "2-5A probe", "experiment": "2-5A binding activity of nested 3'-deletion clones (filter binding and uv crosslinking)", "settings": "expressed in wheat germ extract", "method": "The set of nested 3'-deletions of the truncated murine 2-5A-dependent RNase cDNA, ZB1, is generated with exonuclease III/S1 nuclease digestion followed by filling-in with Klenow DNA Polymerase using the \"Erase-A-Base\"system (Promega).\nas §1"}, "[4]": {"system": "32P-2-5A probe", "experiment": "2-5A binding of lysine to asparagine mutants, uv crosslinking, phosphorimager analysis", "settings": "wheat germ translation products; phosphorimager analysis of dried gel", "experimental": "Briefly, the 2-5A probe, about 0.7 to 2.5 nM at 3,0009 Ci/mmole, is incubated for about one hour on ice with cell extract prepared as described, Silverman, R. H. and Krause, D., I.R.L. Press, Oxford, England, pp. 149-193 (1987), in the absence or presence of unlabeled oligonucleotide competitors. Covalent crosslinking is done under a uv lamp (308 nm) for one hour on ice and the proteins are separated on SDS/10% polyacrylamide gels.\nThe lysines in the truncated murine 2-5A-dependent RNase, clone ZB1, at positions 240 and 274 are mutated, individually and together, to asparagine residues."}, "[5]": {"system": "poly(U)", "experiment": "ribonuclease assay with 2-5A-cellulose", "format": "biochemical", "settings": "enzyme made in reticulocyte lysate, bound to 2-5A-cellulose, 30° C.", "method": "(§2) Transcription of plasmids with phage RNA polymerases is in the presence of mGppppG as described (Promega) except that reaction mixtures are supplemented with 15% dimethyl sulfoxide and incubations are at about 37° C. for about 90 minutes. RNA is purified through Sephadex G50 spun-columns and ethanol precipitated prior to translation. Protein synthesis was performed, as described (Promega), at about 30° C. for about one hour in micrococcal nuclease-pretreated rabbit reticulocyte lysate or in an extract of wheat germ at about room temperature for about one hour and then at about […] for about 12 hours. Translation reactions contain about 50 μM zinc sulfate. […]\n(§3) The ribonuclease assay with 2-5A-cellulose is performed, as described by Silverman, R. H., Anal. Biochem., 144:450-460 (1985). […] The matrix is then incubated with poly(U)-[^32 P]Cp or poly(C)-[^32 P]Cp (both at about 16 μM in nucleotide equivalents) at about 30° C. and the levels of acid-precipitable radioactive RNA are determined by filtration on glass-fiber filters."}, "[6]": {"system": "poly(C)", "experiment": "ribonuclease assay with 2-5A-cellulose", "format": "biochemical", "settings": "after one hour of incubation; enzyme bound to 2-5A-cellulose", "method": "as §2, §3"}}, "data": [{"molecule": "(A2'p)2 A", "values": [{"measurement": "fold higher concentration than trimer 2-5A required to prevent probe binding", "setting": "[1]; both proteins", "value": 500, "unit": "fold"}, {"measurement": "competition with 2-5A probe for binding to protein", "setting": "[1]", "value": "fails to interfere with binding"}, {"measurement": "concentration required to prevent 2-5A probe binding", "setting": "[1]; probe 2.4 nM", "value": 10, "unit": "µM"}, {"measurement": "competition with 2-5A probe for binding to protein", "setting": "[2]", "value": "not prevented"}]}, {"molecule": "p3 (A2'p)2 A", "values": [{"measurement": "competition with 2-5A probe for binding to protein", "setting": "[1]", "value": "completely prevents probe binding"}, {"measurement": "concentration that prevents the 2-5A probe from binding", "setting": "[1]; probe 2.4 nM, either protein (recombinant ZB1 and naturally occurring)", "value": "about 20 nM"}, {"measurement": "competition with 2-5A probe for binding to protein", "setting": "[2]", "value": "effectively competes"}]}, {"molecule": "p3 A2'pA", "values": [{"measurement": "concentration required to prevent 2-5A probe binding", "setting": "[1]; probe 2.4 nM", "value": "> 10", "unit": "µM"}]}, {"molecule": "p3 I2'pA2'pA", "values": [{"measurement": "concentration required to prevent 2-5A probe binding", "setting": "[1]; probe 2.4 nM", "value": "about 1.0 μM"}]}, {"molecule": "ZB14: murine 2-5A-dependent RNase deletion mutant, amino acids 1 to 265, one P-loop motif deleted (protein, UniProt Q05921 1-265, looked up, fragment) METPDYNTPQGGTPSAGSQRTVVEDDSSLIKAVQKGDVVRVQQLLEKGADANACEDTWGWTPLHNAVQAGRVDIVNLLLSHGADPHRRKKNGATPFIIAGIQGDVKLLEILLSCGADVNECDENGFTAFMEAAERGNAEALRFLFAKGANVNLRRQTTKDKRRLKQGGATALMSAAEKGHLEVLRILLNDMKAEVDARDNMGRNALIRTLLNWDCENVEEITSILIQHGADVNVRGERGKTPLIAAVERKHTGLVQMLLSREGIN", "values": [{"measurement": "2-5A binding activity relative to clone ZB1", "setting": "[3]", "value": 1.9, "unit": "%"}]}, {"molecule": "ZB11: murine 2-5A-dependent RNase deletion mutant, amino acid residues 1 to 342 (protein, UniProt Q05921 1-342, looked up, fragment) METPDYNTPQGGTPSAGSQRTVVEDDSSLIKAVQKGDVVRVQQLLEKGADANACEDTWGWTPLHNAVQAGRVDIVNLLLSHGADPHRRKKNGATPFIIAGIQGDVKLLEILLSCGADVNECDENGFTAFMEAAERGNAEALRFLFAKGANVNLRRQTTKDKRRLKQGGATALMSAAEKGHLEVLRILLNDMKAEVDARDNMGRNALIRTLLNWDCENVEEITSILIQHGADVNVRGERGKTPLIAAVERKHTGLVQMLLSREGINIDARDNEGKTALLIAVDKQLKEIVQLLLEKGADKCDDLVWIARRNHDYHLVKLLLPYVANPDTDPPAGDWSPHSSRW", "values": [{"measurement": "loss of 2-5A binding activity as compared to clone ZB1", "setting": "[3]", "value": "about 26%"}]}, {"molecule": "ZB1(Lys^240,274 -)Asn): double mutant of clone ZB1, lysines 240 and 274 replaced by asparagine (protein, UniProt Q05921 1-735, looked up, variant K240N K274N) 2-5A-dependent ribonuclease: METPDYNTPQGGTPSAGSQRTVVEDDSSLIKAVQKGDVVRVQQLLEKGADANACEDTWGWTPLHNAVQAGRVDIVNLLLSHGADPHRRKKNGATPFIIAGIQGDVKLLEILLSCGADVNECDENGFTAFMEAAERGNAEALRFLFAKGANVNLRRQTTKDKRRLKQGGATALMSAAEKGHLEVLRILLNDMKAEVDARDNMGRNALIRTLLNWDCENVEEITSILIQHGADVNVRGERGNTPLIAAVERKHTGLVQMLLSREGINIDARDNEGNTALLIAVDKQLKEIVQLLLEKGADKCDDLVWIARRNHDYHLVKLLLPYVANPDTDPPAGDWSPHSSRWGTALKSLHSMTRPMIGKLKIFIHDDYKIAGTSEGAVYLGIYDNREVAVKVFRENSPRGCKEVSCLRDCGDHSNLVAFYGREDDKGCLYVCVSLCEWTLEEFLRLPREEPVENGEDKFAHSILLSIFEGVQKLHLHGYSHQDLQPQNILIDSKKAVRLADFDQSIRWMGESQMVRRDLEDLGRLVLYVVMKGEIPFETLKTQNDEVLLTMSPDEETKDLIHCLFSPGENVKNCLVDLLGHPFFWTWENRYRTLRNVGNESDIKVRKCKSDLLRLLQHQTLEPPRSFDQWTSKIDKNVMDEMNHFYEKRKKNPYQDTVGDLLKFIRNIGEHINEEKKRGMKEILGDPSRYFQETFPDLVIYIYKKLKETEYRKHFPQPPPRLSVPEAVGPGGIQS", "values": [{"measurement": "2-5A binding activity relative to clone ZB1 (control)", "setting": "[4]", "value": 12.2, "unit": "%"}]}, {"molecule": "ZB13: murine 2-5A-dependent RNase deletion mutant, amino acids 1 to 294 (protein, UniProt Q05921 1-294, looked up, fragment) METPDYNTPQGGTPSAGSQRTVVEDDSSLIKAVQKGDVVRVQQLLEKGADANACEDTWGWTPLHNAVQAGRVDIVNLLLSHGADPHRRKKNGATPFIIAGIQGDVKLLEILLSCGADVNECDENGFTAFMEAAERGNAEALRFLFAKGANVNLRRQTTKDKRRLKQGGATALMSAAEKGHLEVLRILLNDMKAEVDARDNMGRNALIRTLLNWDCENVEEITSILIQHGADVNVRGERGKTPLIAAVERKHTGLVQMLLSREGINIDARDNEGKTALLIAVDKQLKEIVQLLLE", "values": [{"measurement": "2-5A binding activity relative to clone ZB1", "setting": "[3]", "value": "about 38.3%"}]}, {"molecule": "ZB15: murine 2-5A-dependent RNase deletion mutant, amino acids 1 to 218, both P-loop motifs deleted (protein, UniProt Q05921 1-218, looked up, fragment) METPDYNTPQGGTPSAGSQRTVVEDDSSLIKAVQKGDVVRVQQLLEKGADANACEDTWGWTPLHNAVQAGRVDIVNLLLSHGADPHRRKKNGATPFIIAGIQGDVKLLEILLSCGADVNECDENGFTAFMEAAERGNAEALRFLFAKGANVNLRRQTTKDKRRLKQGGATALMSAAEKGHLEVLRILLNDMKAEVDARDNMGRNALIRTLLNWDCENV", "values": [{"measurement": "2-5A binding activity relative to clone ZB1", "setting": "[3]", "value": "completely lacking in 2-5A binding activity"}]}, {"molecule": "recombinant human 2-5A-dependent RNase: full-length human 2-5A-dependent RNase translated in vitro in reticulocyte lysate (protein, UniProt Q05823 1-741, looked up, full-length, full-length human 2-5A-dependent RNase translated in vitro in reticulocyte lysate) MESRDHNNPQEGPTSSSGRRAAVEDNHLLIKAVQNEDVDLVQQLLEGGANVNFQEEEGGWTPLHNAVQMSREDIVELLLRHGADPVLRKKNGATPFILAAIAGSVKLLKLFLSKGADVNECDFYGFTAFMEAAVYGKVKALKFLYKRGANVNLRRKTKEDQERLRKGGATALMDAAEKGHVEVLKILLDEMGADVNACDNMGRNALIHALLSSDDSDVEAITHLLLDHGADVNVRGERGKTPLILAVEKKHLGLVQRLLEQEHIEINDTDSDGKTALLLAVELKLKKIAELLCKRGASTDCGDLVMTARRNYDHSLVKVLLSHGAKEDFHPPAEDWKPQSSHWGAALKDLHRIYRPMIGKLKFFIDEKYKIADTSEGGIYLGFYEKQEVAVKTFCEGSPRAQREVSCLQSSRENSHLVTFYGSESHRGHLFVCVTLCEQTLEACLDVHRGEDVENEEDEFARNVLSSIFKAVQELHLSCGYTHQDLQPQNILIDSKKAAHLADFDKSIKWAGDPQEVKRDLEDLGRLVLYVVKKGSISFEDLKAQSNEEVVQLSPDEETKDLIHRLFHPGEHVRDCLSDLLGHPFFWTWESRYRTLRNVGNESDIKTRKSESEILRLLQPGPSEHSKSFDKWTTKINECVMKKMNKFYEKRGNFYQNTVGDLLKFIRNLGEHIDEEKHKKMKLKIGDPSLYFQKTFPDLVIYVYTKLQNTEYRKHFPQTHSPNKPQCDGAGGASGLASPGC", "values": [{"measurement": "half-life of poly(U) degradation", "setting": "[5]", "value": "about 10 minutes"}, {"measurement": "poly(C) degraded", "setting": "[6]", "value": 20, "unit": "%"}]}]}
